# According to patent publication US20240025899A1, “TRIHETEROCYCLIC DERIVATIVE, AND PHARMACEUTICAL COMPOSITION AND APPLICATION THEREOF” (SHANGHAI DE NOVO PHARMATECH CO., LTD., priority 2020, published 2024):
# Where a name gives a salt, the structure may show the parent alone.
# Tested on: OCI-LY19 human B-cell lymphoma
# Experiment: In vivo drug efficacy, OCI-LY19 human B-cell lymphoma mouse subcutaneous xenograft tumor model
# Method: Cell culture: Human B-cell lymphoma OCI-LY19 cells were maintained as a monolayer in MEM-α medium containing 10% fetal bovine serum in a constant temperature incubator at 37° C. with 5% CO2. Tumor cells were subcultured twice a week. Cells in exponential growth phase were harvested and counted for inoculation.
# Experimental animals: BALB/c nude mice, 6-8 weeks old, 19-22 g, purchased from Beijing Vital River Laboratory Animal Technology Co., Ltd.
# For Vehicle, positive control (AZD6738, CAS number: 1352226-88-0) and compound 2, a total of 6 experimental groups were set up, as shown in Table 5 below:
# Experimental method: The OCI-LY19 cell line (3.0×10^6 cells/mouse) was inoculated subcutaneously on the right back of the experimental mouse, and the inoculation volume of each mouse was 0.1 mL, and the growth of tumors was observed regularly, and until the tumor grew to about 100 mm^3, the mice were randomly divided into groups according to the tumor size and body weight, and administered according to the administration plan shown in Table 5, and the mouse body weight and tumor size were measured twice a week during the whole experiment.
# tumor volume (mm^3)=0.5×(tumor long diameter×tumor short diameter^2). Tumor size calculation formula: […]
# [1] = Group 3, 5 mg/kg p.o. once a day
# [2] = Group 4, 10 mg/kg p.o. once a day
# [3] = Group 5, 10 mg/kg p.o. once a day × 4 days on, 3 days off
# [4] = Group 6, 20 mg/kg p.o. once a day × 4 days on, 3 days off
structure (smiles),measurement,setting,value
"C[C@@H]1COCCN1c1nc2c(cnn2-c2cc[nH]n2)c2c1CCN2S(C)(=O)=O [Compound 2, (R)-3-methyl-4-(1-(methylsulfonyl)-6-(1H-pyrazol-3-yl)-1,2,3,6-tetrahydropyrazolo[3,4-b]pyrrolo[2,3-d]pyridin-4-yl)morpholine trifluoroacetate]",T/C (%),[1],17.9%
same,TGI (%),[1],86.0%
same,"Tumor volume (10 days, mm^3)",[1],109.41 ± 4.35 mm^3
same,"Tumor volume (24 days, mm^3)",[1],424.51 ± 77.26 mm^3
same,T/C (%),[2],8.5%
same,TGI (%),[2],95.9%
same,"Tumor volume (10 days, mm^3)",[2],109.00 ± 4.19 mm^3
same,"Tumor volume (24 days, mm^3)",[2],202.09 ± 44.85 mm^3
same,T/C (%),[3],15.9%
same,TGI (%),[3],88.2%
same,"Tumor volume (10 days, mm^3)",[3],109.20 ± 3.96 mm^3
same,"Tumor volume (24 days, mm^3)",[3],375.56 ± 92.96 mm^3
same,T/C (%),[4],7.9%
same,TGI (%),[4],96.5%
same,"Tumor volume (10 days, mm^3)",[4],109.24 ± 4.22 mm^3
same,"Tumor volume (24 days, mm^3)",[4],187.91 ± 27.01 mm^3
